Assay results: ChEMBL document CHEMBL4351015, “Design, synthesis and biological evaluation of 3-(imidazo[1,2-a]pyrazin-3-ylethynyl)-2-methylbenzamides as potent and selective pan-tropomyosin receptor kinase (TRK) inhibitors” (Eur J Med Chem, 2019)

How the values were obtained:
[1] = molecular target: Tyrosine-protein kinase ABL1 (Homo sapiens, UniProt P00519); experiment: Inhibition of recombinant full length human His-tagged ABL1 expressed in baculovirus infected insect cells using tyr 02 as substrate incubated for 2 hr by Z'-Lyte assay
[2] = molecular target: BDNF/NT-3 growth factors receptor (Homo sapiens, UniProt Q16620); experiment: Inhibition of recombinant human His-tagged TrkB catalytic domain (526 to 838 residues) expressed in baculovirus expression system using tyr 01 as substrate incubated for 1 hr by Z'-Lyte assay
[3] = molecular target: High affinity nerve growth factor receptor (Homo sapiens, UniProt P04629); experiment: Inhibition of recombinant human His-tagged TrkA catalytic domain (441 to 796 residues) expressed in baculovirus expression system using tyr 01 as substrate incubated for 1 hr by Z'-Lyte assay
[4] = molecular target: NT-3 growth factor receptor (Homo sapiens, UniProt Q16288); experiment: Inhibition of recombinant human His-tagged TrkC cytoplasmic domain (510 to 825 residues) expressed in baculovirus using tyr 01 as substrate incubated for 1 hr by Z'-Lyte assay
Sequence of NT-3 growth factor receptor (Q16288 whole entry, the tested form may be a part): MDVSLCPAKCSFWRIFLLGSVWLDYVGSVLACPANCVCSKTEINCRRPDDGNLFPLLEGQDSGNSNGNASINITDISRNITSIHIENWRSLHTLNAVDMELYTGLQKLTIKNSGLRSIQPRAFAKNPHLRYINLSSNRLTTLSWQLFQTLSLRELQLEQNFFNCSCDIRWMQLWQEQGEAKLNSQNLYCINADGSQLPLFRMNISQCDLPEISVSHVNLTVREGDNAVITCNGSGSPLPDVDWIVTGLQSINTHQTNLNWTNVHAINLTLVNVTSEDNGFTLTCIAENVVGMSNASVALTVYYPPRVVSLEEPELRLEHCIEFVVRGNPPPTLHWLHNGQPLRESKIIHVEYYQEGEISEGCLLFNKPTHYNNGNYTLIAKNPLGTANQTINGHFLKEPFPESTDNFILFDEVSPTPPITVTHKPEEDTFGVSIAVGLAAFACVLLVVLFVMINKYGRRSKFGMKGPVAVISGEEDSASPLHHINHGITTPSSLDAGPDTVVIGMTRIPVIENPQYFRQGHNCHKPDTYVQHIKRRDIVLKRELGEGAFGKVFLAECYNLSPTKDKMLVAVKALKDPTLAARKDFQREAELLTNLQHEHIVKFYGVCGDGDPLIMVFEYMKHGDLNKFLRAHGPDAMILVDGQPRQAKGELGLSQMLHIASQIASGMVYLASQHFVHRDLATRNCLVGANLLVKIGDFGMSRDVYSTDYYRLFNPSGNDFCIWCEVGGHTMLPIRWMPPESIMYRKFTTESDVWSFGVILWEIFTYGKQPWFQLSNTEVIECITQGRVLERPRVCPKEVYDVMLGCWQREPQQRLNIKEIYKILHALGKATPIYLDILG

Sequence of High affinity nerve growth factor receptor (P04629 whole entry, the tested form may be a part): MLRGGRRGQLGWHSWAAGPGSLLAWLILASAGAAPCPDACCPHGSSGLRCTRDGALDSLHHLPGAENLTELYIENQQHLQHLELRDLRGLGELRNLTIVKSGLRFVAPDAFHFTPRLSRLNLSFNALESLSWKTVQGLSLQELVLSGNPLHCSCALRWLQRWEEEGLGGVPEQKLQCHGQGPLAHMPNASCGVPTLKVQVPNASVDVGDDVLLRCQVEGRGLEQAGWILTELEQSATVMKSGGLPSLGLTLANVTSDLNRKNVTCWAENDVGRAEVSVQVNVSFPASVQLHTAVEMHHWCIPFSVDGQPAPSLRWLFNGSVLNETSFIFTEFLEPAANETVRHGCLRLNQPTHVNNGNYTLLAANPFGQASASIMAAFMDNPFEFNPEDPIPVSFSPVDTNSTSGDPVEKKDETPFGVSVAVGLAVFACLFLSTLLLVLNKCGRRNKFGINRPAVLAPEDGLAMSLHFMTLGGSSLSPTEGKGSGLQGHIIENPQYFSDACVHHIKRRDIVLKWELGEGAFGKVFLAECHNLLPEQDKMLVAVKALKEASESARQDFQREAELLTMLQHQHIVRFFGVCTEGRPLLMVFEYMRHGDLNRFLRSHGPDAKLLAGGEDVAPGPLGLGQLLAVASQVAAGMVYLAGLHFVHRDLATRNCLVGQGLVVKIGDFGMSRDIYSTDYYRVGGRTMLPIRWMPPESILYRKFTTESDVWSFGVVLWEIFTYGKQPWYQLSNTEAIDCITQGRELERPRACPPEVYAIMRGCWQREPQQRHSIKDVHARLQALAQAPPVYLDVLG
Sequence of Tyrosine-protein kinase ABL1 (P00519 whole entry, the tested form may be a part): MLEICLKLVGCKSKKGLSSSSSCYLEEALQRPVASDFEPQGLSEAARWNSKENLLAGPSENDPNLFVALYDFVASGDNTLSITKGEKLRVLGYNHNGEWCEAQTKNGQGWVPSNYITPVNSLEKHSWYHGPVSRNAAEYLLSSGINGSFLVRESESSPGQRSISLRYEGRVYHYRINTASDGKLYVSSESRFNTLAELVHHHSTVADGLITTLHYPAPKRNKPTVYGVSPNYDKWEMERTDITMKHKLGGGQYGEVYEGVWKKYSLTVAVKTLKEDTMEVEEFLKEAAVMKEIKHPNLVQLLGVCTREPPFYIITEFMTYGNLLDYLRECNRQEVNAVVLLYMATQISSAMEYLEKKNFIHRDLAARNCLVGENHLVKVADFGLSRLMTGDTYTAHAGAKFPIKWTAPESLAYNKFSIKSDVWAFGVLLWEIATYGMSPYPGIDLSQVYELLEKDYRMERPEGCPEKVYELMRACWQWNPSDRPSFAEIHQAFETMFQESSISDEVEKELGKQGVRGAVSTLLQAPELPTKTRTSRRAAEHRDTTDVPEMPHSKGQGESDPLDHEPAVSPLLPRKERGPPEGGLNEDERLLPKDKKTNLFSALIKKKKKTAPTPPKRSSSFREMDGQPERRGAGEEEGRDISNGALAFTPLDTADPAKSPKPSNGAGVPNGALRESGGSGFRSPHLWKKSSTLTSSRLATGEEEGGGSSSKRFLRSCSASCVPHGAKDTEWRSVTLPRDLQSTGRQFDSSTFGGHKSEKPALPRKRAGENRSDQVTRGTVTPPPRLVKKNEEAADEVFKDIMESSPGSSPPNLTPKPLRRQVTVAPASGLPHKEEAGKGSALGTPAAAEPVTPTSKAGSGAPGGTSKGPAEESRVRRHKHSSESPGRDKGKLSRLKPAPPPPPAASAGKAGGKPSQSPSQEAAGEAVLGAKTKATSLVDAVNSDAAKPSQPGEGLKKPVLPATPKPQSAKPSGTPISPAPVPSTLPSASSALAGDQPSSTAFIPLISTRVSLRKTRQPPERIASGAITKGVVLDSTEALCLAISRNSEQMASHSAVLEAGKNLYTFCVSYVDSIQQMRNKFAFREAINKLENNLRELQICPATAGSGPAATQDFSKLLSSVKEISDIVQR
Sequence of BDNF/NT-3 growth factors receptor (Q16620 whole entry, the tested form may be a part): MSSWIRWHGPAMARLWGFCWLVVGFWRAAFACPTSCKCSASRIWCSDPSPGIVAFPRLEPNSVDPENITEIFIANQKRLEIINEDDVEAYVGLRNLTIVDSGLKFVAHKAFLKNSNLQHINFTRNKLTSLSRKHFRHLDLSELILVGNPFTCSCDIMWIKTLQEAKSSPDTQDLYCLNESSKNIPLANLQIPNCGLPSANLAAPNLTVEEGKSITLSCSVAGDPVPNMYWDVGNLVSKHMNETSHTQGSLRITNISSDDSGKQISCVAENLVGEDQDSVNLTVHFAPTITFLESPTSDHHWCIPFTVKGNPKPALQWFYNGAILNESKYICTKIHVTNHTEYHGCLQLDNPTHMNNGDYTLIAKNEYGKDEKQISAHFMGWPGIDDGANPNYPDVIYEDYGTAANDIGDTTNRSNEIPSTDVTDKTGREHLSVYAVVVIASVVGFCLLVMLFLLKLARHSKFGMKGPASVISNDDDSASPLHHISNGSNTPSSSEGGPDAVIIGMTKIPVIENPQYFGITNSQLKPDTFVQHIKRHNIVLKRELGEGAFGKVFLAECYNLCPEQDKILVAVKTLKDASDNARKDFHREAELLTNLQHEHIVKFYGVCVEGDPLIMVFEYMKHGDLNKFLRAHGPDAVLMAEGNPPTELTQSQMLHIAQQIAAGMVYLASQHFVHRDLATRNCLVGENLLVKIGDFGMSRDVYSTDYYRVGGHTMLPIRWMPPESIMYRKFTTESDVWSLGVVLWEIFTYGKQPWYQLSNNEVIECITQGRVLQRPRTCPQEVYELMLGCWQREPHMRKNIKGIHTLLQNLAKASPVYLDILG

Cc1ccc(C#Cc2cnc3cnccn23)cc1C(=O)Nc1cc(CN2CCN(C)CC2)cc(C(F)(F)F)c1
IC50 [1]: > 1000 nM | IC50 [2]: > 1000 nM | IC50 [3]: > 1000 nM

CCCc1c(C#Cc2cnc3cnccn23)cccc1C(=O)Nc1cc(CN2CCN(C)CC2)cc(C(F)(F)F)c1
IC50 [1]: > 1000 nM | IC50 [2]: > 1000 nM | IC50 [3]: > 1000 nM | IC50 [4]: > 1000 nM

Cc1c(C#Cc2cnc3cnc(-c4ccc(N)cc4)cn23)cccc1C(=O)Nc1cc(CN2CCN(C)CC2)cc(C(F)(F)F)c1
IC50 [1]: > 1000 nM | IC50 [2]: 13.1 nM | IC50 [3]: 7.75 nM

CN1CCN(Cc2cc(NC(=O)c3cccc(C#Cc4cnc5cnccn45)c3Cl)cc(C(F)(F)F)c2)CC1
IC50 [1]: > 1000 nM | IC50 [2]: 254 nM | IC50 [3]: 227 nM

CC(C)c1c(C#Cc2cnc3cnccn23)cccc1C(=O)Nc1cc(CN2CCN(C)CC2)cc(C(F)(F)F)c1
IC50 [1]: > 1000 nM | IC50 [2]: > 1000 nM | IC50 [3]: > 1000 nM | IC50 [4]: > 1000 nM

Cc1c(C#Cc2cnc3cnccn23)cccc1C(=O)Nc1cc(CN2CCN(C)CC2)cc(C(F)(F)F)c1
IC50 [1]: > 1000 nM | IC50 [2]: 38.3 nM | IC50 [3]: 39.8 nM

Cc1c(C#Cc2cnc3cnc(-c4ccncc4)cn23)cccc1C(=O)Nc1cc(CN2CCN(C)CC2)cc(C(F)(F)F)c1
IC50 [1]: > 1000 nM | IC50 [2]: 43.5 nM | IC50 [3]: 28.8 nM

Cc1ccc(C(=O)Nc2cc(CN3CCN(C)CC3)cc(C(F)(F)F)c2)cc1C#Cc1cnc2cnccn12
IC50 [2]: 9.37 nM | IC50 [3]: 8.24 nM

CCc1c(C#Cc2cnc3cnccn23)cccc1C(=O)Nc1cc(CN2CCN(C)CC2)cc(C(F)(F)F)c1
IC50 [1]: > 1000 nM | IC50 [2]: 315 nM | IC50 [3]: 186 nM
